Literature values in patent US20240065969A1, “OPHTHALMIC TOPICAL CREAM FORMULATIONS AND USES THEREOF” (Glaukos Corporation, priority 2022, published 2024).

pKa: ~6.5
Structure (SMILES): CC[C@@H]1C(=O)OC[C@@H]1Cc1cncn1C [pilocarpine]
